# Source: patent US8952024B2, “Herbicidal pyrimidone derivatives” (E I du Pont de Nemours and Company, priority 2009, dated 2015)
# Experiments:
# Assay in all cases: Test B pre-/postemergence plant response
# Type in all cases: in vivo
# [1] = system: Italian ryegrass (Lolium multiflorum); conditions: Postemergence
# Method in brief: (§1)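 Visual ratings on a 0–100 scale (100 = complete control) were made versus untreated controls 13–15 days after treatment in a greenhouse. Compounds in surfactant-containing non-phytotoxic solvent were applied preemergence to seeds in loam–sand blend or postemergence to 1- to 4-leaf plants (2–18 cm).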
# [2] = system: ragweed (common ragweed, Ambrosia elatior); conditions: Postemergence
# Method in brief: as §1
# [3] = system: velvetleaf (Abutilon theophrasti); conditions: Postemergence
# Method in brief: as §1
# [4] = system: downy bromegrass (Bromus tectorum); conditions: for Plant response rating, Bromegrass, Downy: Postemergence
# Method in brief: as §1
# corn (Zea mays) = conditions: Postemergence
# Method in brief: as §1
# [5] = system: blackgrass (Alopecurus myosuroides); conditions: for Plant response rating, Blackgrass: Postemergence
# Method in brief: as §1
# kochia (Kochia scoparia) = conditions: Postemergence
# Method in brief: as §1
# [6] = system: pigweed (Amaranthus retroflexus); conditions: Postemergence
# Method in brief: as §1
# [7] = system: giant foxtail (Setaria faberii); conditions: Postemergence
# Method in brief: as §1
# soybean (Glycine max) = conditions: Postemergence
# Method in brief: as §1
# [8] = system: johnsongrass (Sorghum halepense); conditions: Postemergence
# Method in brief: as §1
# [9] = system: Surinam grass (Brachiaria decumbens); conditions: Postemergence
# Method in brief: as §1
# [10] = system: woolly cupgrass (Eriochloa villosa); conditions: Postemergence
# Method in brief: as §1
# [11] = 31 g ai/ha, 0 to 100 scale (0 no effect, 100 complete control)
# [12] = 125 g ai/ha, scale 0 to 100 (0 no effect, 100 complete control)
# [13] = 250 g ai/ha, scale 0 to 100 (0 no effect, 100 complete control), 13 to 15 days
# [14] = 62 g ai/ha, postemergence, 0 is no effect, 100 is complete control, 13 to 15 days
# [15] = 62 g ai/ha, scale 0 to 100 (0 no effect, 100 complete control)
compound,measurement,setting,value
CCCn1c(-c2cc(C)cc(C)c2)ncc(C(=O)C2=C(O)CCCC2=O)c1=O [Compound 156],"Plant response rating, Ryegrass, Italian",[1]; [11],0
same,"Plant response rating, Ryegrass, Italian",[1]; [12],20
same,"Plant response rating, Ryegrass, Italian",[1]; [13],40
same,"Plant response rating, Ragweed",[2]; [11],65
same,"Plant response rating, Ragweed",[2]; [12],75
same,"Plant response rating, Ragweed",[2]; [13],90
same,"Plant response rating, Velvetleaf",[3]; [11],60
same,"Plant response rating, Velvetleaf",[3]; [12],95
same,"Plant response rating, Velvetleaf",[3]; [13],100
same,"Bromegrass, Downy plant response rating (0 to 100 scale)",[4]; [14],10
same,"Plant response rating, Bromegrass, Downy",[4]; [11],10
same,"Plant response rating, Bromegrass, Downy",[4]; [12],35
same,"Plant response rating, Bromegrass, Downy",[4]; [13],40
same,"Plant response rating, Corn",corn (Zea mays); [11],10
same,"Plant response rating, Corn",corn (Zea mays); [12],45
same,"Plant response rating, Corn",corn (Zea mays); [13],60
same,Blackgrass plant response rating (0 to 100 scale),[5]; [14],5
same,"Plant response rating, Blackgrass",[5]; [11],5
same,"Plant response rating, Blackgrass",[5]; [12],35
same,"Plant response rating, Blackgrass",[5]; [13],50
same,"Plant response rating, Kochia",kochia (Kochia scoparia); [11],10
same,"Plant response rating, Kochia",kochia (Kochia scoparia); [12],20
same,"Plant response rating, Kochia",kochia (Kochia scoparia); [13],25
same,"Plant response rating, Pigweed",[6]; [11],60
same,"Plant response rating, Pigweed",[6]; [12],98
same,"Plant response rating, Pigweed",[6]; [13],100
same,"Plant response rating, Foxtail, Giant",[7]; [11],75
same,"Plant response rating, Foxtail, Giant",[7]; [12],85
same,"Plant response rating, Foxtail, Giant",[7]; [13],90
same,"Plant response rating, Soybean",soybean (Glycine max); [11],80
same,"Plant response rating, Soybean",soybean (Glycine max); [12],98
same,"Plant response rating, Soybean",soybean (Glycine max); [13],98
same,"Plant response rating, Johnsongrass",[8]; [11],15
same,"Plant response rating, Johnsongrass",[8]; [12],45
same,"Plant response rating, Johnsongrass",[8]; [13],65
same,"Plant response rating, Surinam Grass",[9]; [11],40
same,"Plant response rating, Surinam Grass",[9]; [12],60
same,"Plant response rating, Surinam Grass",[9]; [13],70
same,"Plant response rating, Cupgrass, Woolly",[10]; [11],40
same,"Plant response rating, Cupgrass, Woolly",[10]; [12],55
same,"Plant response rating, Cupgrass, Woolly",[10]; [13],65
CCCn1c(-c2ccsc2)ncc(C(=O)C2=C(O)C3CCC(C3)C2=O)c1=O (stereo not drawn) [Compound 227],"Plant response rating, Ryegrass, Italian",[1]; [11],0
same,"Plant response rating, Ryegrass, Italian",[1]; [15],0
same,"Plant response rating, Ryegrass, Italian",[1]; [13],10
same,"Plant response rating, Ragweed",[2]; [11],60
same,"Plant response rating, Ragweed",[2]; [15],70
same,"Plant response rating, Ragweed",[2]; [13],85
same,"Plant response rating, Velvetleaf",[3]; [11],80
same,"Plant response rating, Velvetleaf",[3]; [15],80
same,"Plant response rating, Velvetleaf",[3]; [13],98
same,"Plant response rating, Bromegrass, Downy",[4]; [11],0
same,"Plant response rating, Bromegrass, Downy",[4]; [15],0
same,"Plant response rating, Bromegrass, Downy",[4]; [12],0
same,"Plant response rating, Bromegrass, Downy",[4]; [13],25
same,"Plant response rating, Corn",corn (Zea mays); [11],20
same,"Plant response rating, Corn",corn (Zea mays); [15],75
same,"Plant response rating, Corn",corn (Zea mays); [12],75
same,"Plant response rating, Corn",corn (Zea mays); [13],85
same,"Plant response rating, Blackgrass",[5]; [11],0
same,"Plant response rating, Blackgrass",[5]; [15],0
same,"Plant response rating, Blackgrass",[5]; [12],5
same,"Plant response rating, Blackgrass",[5]; [13],20
same,"Plant response rating, Kochia",kochia (Kochia scoparia); [11],70
same,"Plant response rating, Kochia",kochia (Kochia scoparia); [15],75
same,"Plant response rating, Kochia",kochia (Kochia scoparia); [12],85
same,"Plant response rating, Kochia",kochia (Kochia scoparia); [13],100
same,"Plant response rating, Pigweed",[6]; [11],80
same,"Plant response rating, Pigweed",[6]; [15],90
same,"Plant response rating, Pigweed",[6]; [13],100
same,"Plant response rating, Foxtail, Giant",[7]; [11],75
same,"Plant response rating, Foxtail, Giant",[7]; [15],80
same,"Plant response rating, Foxtail, Giant",[7]; [12],90
same,"Plant response rating, Foxtail, Giant",[7]; [13],98
same,"Plant response rating, Soybean",soybean (Glycine max); [11],55
same,"Plant response rating, Soybean",soybean (Glycine max); [15],65
same,"Plant response rating, Soybean",soybean (Glycine max); [13],98
same,"Plant response rating, Johnsongrass",[8]; [11],45
same,"Plant response rating, Johnsongrass",[8]; [15],60
same,"Plant response rating, Johnsongrass",[8]; [12],60
same,"Plant response rating, Johnsongrass",[8]; [13],65
same,"Plant response rating, Surinam Grass",[9]; [11],55
same,"Plant response rating, Surinam Grass",[9]; [15],70
same,"Plant response rating, Surinam Grass",[9]; [13],95
same,"Plant response rating, Cupgrass, Woolly",[10]; [11],55
same,"Plant response rating, Cupgrass, Woolly",[10]; [15],75
same,"Plant response rating, Cupgrass, Woolly",[10]; [12],90
same,"Plant response rating, Cupgrass, Woolly",[10]; [13],95
